Results taken from the supplement of paper PMC4862054.

Legend:
HDQ-P1 [1] = test: normalised viability (% of control), CellTiter-Blue; higher = more viable cells (about 100 = DMSO control); details: 30 nM; incubation time: 72 h
Procedure: (§1)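 DSRT, CellTiter-Blue viability, 72 h incubation. Signal is normalised to DMSO and benzethonium chloride controls. Value is the normalised response at dose 6.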

MDA-MB-453 [2] = test: as above; details: 30 nM; incubation time: 72 h
Procedure: as §1

DU-4475 = test: normalised viability (% of control), CellTiter-Blue; higher = more viable cells (about 100 = DMSO control); details: incubation time: 72 h
How it was run: (§2)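 Breast cancer cell lines were treated for 72 h in 384-well format and measured by CellTiter-Blue fluorescence at 560/590 nm. Results were normalised per plate to vehicle (100) and a positive kill control (0). The entry is normalised viability at a single listed concentration of the series.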

Hs578T [3] = test: as above; details: incubation time: 72 h
How it was run: as §2

HCC1599 = test: as above; details: incubation time: 72 h
How it was run: as §2

HCC1143 = test: as above; details: incubation time: 72 h
How it was run: as §2

CAL-148 = test: as above; details: incubation time: 72 h
How it was run: as §2

MDA-MB-468 = test: as above; details: incubation time: 72 h
How it was run: as §2

CAL-51 = test: as above; details: incubation time: 72 h
How it was run: as §2

MDA-MB-231 = test: as above; details: incubation time: 72 h
How it was run: as §2

HDQ-P1 [4] = test: as above; details: incubation time: 72 h
How it was run: as §2

CAL-120 = test: as above; details: incubation time: 72 h
How it was run: as §2

MDA-MB-436 [5] = test: as above; details: incubation time: 72 h
How it was run: as §2

BT-549 = test: as above; details: incubation time: 72 h
How it was run: as §2

MFM-223 = test: as above; details: incubation time: 72 h
How it was run: as §2

MDA-MB-453 [6] = test: as above; details: incubation time: 72 h
How it was run: as §2

HCC1937 [7] = test: as above; details: incubation time: 72 h
How it was run: as §2

SK-BR-3 = test: as above; details: incubation time: 72 h
How it was run: as §2

CAL-85-1 = test: as above; details: incubation time: 72 h
How it was run: as §2

BT-474 = test: as above; details: incubation time: 72 h
How it was run: as §2

Hs578T [8] = test: drug sensitivity score (DSS), CellTiter-Blue viability (DSS (AUC-based score)); higher = stronger viability inhibition; extreme values may be limits of the assay; details: incubation time: 72 h
How it was run: (§3)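 Drug sensitivity scores correspond to the area under the fitted dose-response curve. Breast cancer cell lines were incubated 72 h with compound at 5 or 9 concentrations in 384-well plates. Viability, read as CellTiter-Blue fluorescence at 560/590 nm, was normalised per plate to 0.1 % DMSO and a positive kill control.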

MDA-MB-436 [9] = test: as above; details: incubation time: 72 h
How it was run: as §3

HCC1937 [10] = test: as above; details: incubation time: 72 h
How it was run: as §3

C=CC(=O)N1CCC[C@@H](n2nc(-c3ccc(Oc4ccccc4)cc3)c3c(N)ncnc32)C1
normalised viability (HDQ-P1 [1]): 107%
normalised viability (MDA-MB-453 [2]): 50.2%
normalised viability (DU-4475; 0.3 nM): 91.8%
normalised viability (DU-4475; 3 nM): 87.4%
normalised viability (DU-4475; 10 nM): 86.8%
normalised viability (Hs578T [3]; 1 nM): 123%
normalised viability (Hs578T [3]; 100 nM): 123%
normalised viability (Hs578T [3]; 1000 nM): 112%
normalised viability (HCC1599; 1 nM): 104%
normalised viability (HCC1599; 100 nM): 83.3%
normalised viability (HCC1599; 1000 nM): 82.6%
normalised viability (HCC1143; 1 nM): 76%
normalised viability (HCC1143; 100 nM): 79%
normalised viability (HCC1143; 1000 nM): 81.8%
normalised viability (CAL-148; 0.3 nM): 85.8%
normalised viability (CAL-148; 3 nM): 98.6%
normalised viability (CAL-148; 10 nM): 96.3%
normalised viability (MDA-MB-468; 1 nM): 99.9%
normalised viability (MDA-MB-468; 100 nM): 78.3%
normalised viability (MDA-MB-468; 1000 nM): 69.3%
normalised viability (CAL-51; 0.3 nM): 95.9%
normalised viability (CAL-51; 3 nM): 91%
normalised viability (CAL-51; 10 nM): 94.3%
normalised viability (MDA-MB-231; 1 nM): 102%
normalised viability (MDA-MB-231; 100 nM): 101%
normalised viability (MDA-MB-231; 1000 nM): 111%
normalised viability (HDQ-P1 [4]; 0.3 nM): 130%
normalised viability (HDQ-P1 [4]; 3 nM): 106%
normalised viability (HDQ-P1 [4]; 10 nM): 105%
normalised viability (CAL-120; 1 nM): 86.4%
normalised viability (CAL-120; 100 nM): 86.4%
normalised viability (CAL-120; 1000 nM): 97%
normalised viability (MDA-MB-436 [5]; 1 nM): 106%
normalised viability (MDA-MB-436 [5]; 100 nM): 85.8%
normalised viability (MDA-MB-436 [5]; 1000 nM): 94.8%
normalised viability (BT-549; 1 nM): 96.6%
normalised viability (BT-549; 100 nM): 109%
normalised viability (BT-549; 1000 nM): 118%
normalised viability (MFM-223; 1 nM): 92.1%
normalised viability (MFM-223; 100 nM): 83%
normalised viability (MFM-223; 1000 nM): 56.6%
normalised viability (MDA-MB-453 [6]; 0.3 nM): 112%
normalised viability (MDA-MB-453 [6]; 3 nM): 92.4%
normalised viability (MDA-MB-453 [6]; 10 nM): 77.3%
normalised viability (HCC1937 [7]; 1 nM): 94.8%
normalised viability (HCC1937 [7]; 100 nM): 101%
normalised viability (HCC1937 [7]; 1000 nM): 89.7%
normalised viability (SK-BR-3; 1 nM): 91.9%
normalised viability (SK-BR-3; 100 nM): 24.9%
normalised viability (SK-BR-3; 1000 nM): 21.7%
normalised viability (CAL-85-1; 0.3 nM): 87.8%
normalised viability (CAL-85-1; 3 nM): 84.6%
normalised viability (CAL-85-1; 10 nM): 96.9%
normalised viability (BT-474; 1 nM): 124%
normalised viability (BT-474; 100 nM): 45.9%
normalised viability (BT-474; 1000 nM): 42.1%
drug sensitivity score (Hs578T [8]): 0
drug sensitivity score (MDA-MB-436 [9]): 0
drug sensitivity score (HCC1937 [10]): 0
